# According to patent US20100280019A1, “ISOXAZOLES” (priority 2009, published 2010):
# Molecular target: T1, GABA A α5 (human receptors of composition α5β3γ2) (Homo sapiens, UniProt P18507+P31644)
# T1 construct: expressed in transfected cells; host or cells: HEK293, transiently transfected; membranes prepared from cell pellets
# Assay: [3H]flumazenil competition binding, HEK293 cells expressing human GABA A α5β3γ2 receptors
# Conditions: [3H]-Flumazenil 0.5 nM, means of two determinations, read-out: hKi (GABA Aα5)
# Protocol: The affinity of compounds at GABA A receptor subtypes was measured by competition for [^3H]flumazenil (85 Ci/mmol; Roche) binding to HEK293 cells expressing rat (stably transfected) or human (transiently transfected) receptors of composition α1β3γ2, α2β3γ2, α3β3γ2 and α5β3γ2.
# Cell pellets were suspended in Krebs-tris buffer (4.8 mM KCl, 1.2 mM CaCl2, 1.2 mM MgCl2, 120 mM NaCl, 15 mM Tris; pH 7.5; binding assay buffer), homogenized by polytron for ca. 20 sec on ice and centrifuged for 60 min at 4° C. (50000 g; Sorvall, rotor: SM24=20000 rpm). The cell pellets were resuspended in Krebs-tris buffer and homogenized by polytron for ca. 15 sec on ice. Protein was measured (Bradford method, Bio-Rad) and aliquots of 1 mL were prepared and stored at −80° C.
# Radioligand binding assays were carried out in a volume of […] (96-well plates) which contained […] of cell membranes, [^3H]-Flumazenil at a concentration of 1 nM for α1, α2, α3 subunits and 0.5 nM for α5 subunits and the test compound in the range of […]. Nonspecific binding was defined by 10^−5 M diazepam and typically represented less than 5% of the total binding. Assays were incubated to equilibrium for 1 hour at 4° C. and harvested onto GF/C uni-filters (Packard) by filtration using a Packard harvester and washing with ice-cold wash buffer (50 mM Tris; pH 7.5). After drying, filter-retained radioactivity was detected by liquid scintillation counting. Ki values were calculated using Excel-Fit (Microsoft) and are the means of two determinations.
# Representative test results, obtained by the above described assay measuring binding affinity to HEK293 cells expressing human (h) receptors, are shown in table 1 below.
row,SMILES,Ki [nM]
1,"Cc1onc(-c2ccccc2)c1COc1ccc(C(=O)NN)cn1 [Example 1, 6-((5-Methyl-3-phenyl-isoxazol-4-yl)-methoxy)-nicotinic acid hydrazide]",5.4
2,"Cc1onc(-c2ccccc2)c1COc1ccc(C(=O)NN2CCOCC2)cn1 [Example 2, 6-((5-Methyl-3-phenyl-isoxazol-4-yl)-methoxy)-N-morpholin-4-yl-nicotinamide]",0.6
3,"Cc1onc(-c2ccccc2)c1COc1ccc(C(=O)NN2CCCCC2)cn1 [Example 3, 6-((5-Methyl-3-phenyl-isoxazol-4-yl)-methoxy)-N-piperidin-1-yl-nicotinamide]",4
4,"Cc1onc(-c2ccccc2)c1COc1ccc(C(=O)NN2CCCC2)cn1 [Example 4, 6-((5-Methyl-3-phenyl-isoxazol-4-yl)-methoxy)-N-pyrrolidin-1-yl-nicotinamide]",2.6
5,"Cc1onc(-c2ccccc2)c1COc1ccc(C(=O)NN2CCS(=O)(=O)CC2)cn1 [Example 5, N-(1,1-Dioxo-1,6-thiomorpholin-4-yl)-6-((5-methyl-3-phenyl-isoxazol-4-yl)-methoxy)-nicotinamide]",2.6
6,"Cc1onc(-c2ccccc2)c1COc1ccc(C(=O)NNS(C)(=O)=O)cn1 [Example 6, 6-((5-Methyl-3-phenyl-isoxazol-4-yl)-methoxy)-nicotinic acid N′-(methylsulfonyl)-hydrazide]",4.8
7,"Cc1onc(-c2ccc(F)cn2)c1COc1ccc(C(=O)NN2CCOCC2)cn1 [Example 7, 6-[(3-(5-Fluoro-pyridin-2-yl)-5-methyl-isoxazol-4-yl)-methoxy]-N-morpholin-4-yl-nicotinamide]",0.4
8,"CCCCc1noc(C)c1COc1ccc(C(=O)NN2CCOCC2)cn1 [Example 8, 6-((3-Butyl-5-methyl-isoxazol-4-yl)-methoxy)-N-morpholin-4-yl-nicotinamide]",6.4
9,"CCCCc1noc(C)c1COc1ccc(C(=O)NN2CCCC2)cn1 [Example 9, 6-((3-Butyl-5-methyl-isoxazol-4-yl)-methoxy)-N-pyrrolidin-1-yl-nicotinamide]",19.4
10,"CCCCc1noc(C)c1COc1ccc(C(=O)NN(C)C)cn1 [Example 10, 6-((3-Butyl-5-methyl-isoxazol-4-yl)-methoxy)-nicotinic acid 2,2-dimethyl-hydrazide]",18.7
11,"Cc1onc(-c2ccccc2)c1COc1ccc(C(=O)NN2CCOCC2)nn1 [Example 11, 6-((5-Methyl-3-phenyl-isoxazol-4-yl)-methoxy)-pyridazine-3-carboxylic acid morpholin-4-ylamide]",9.5
